Experimental findings from US8853147B2, “Use of peptide epoxyketones for metastasis suppression” (Onyx Therapeutics, Inc., priority 2009, dated 2014) are described below.

This experiment has as its system 4T1 mammary carcinoma cells. The experiment can be described thus: 4T1 mammary carcinoma metastasis model in BALB/c mice (mammary fat pad challenge, lung metastases). Conditions: female BALB/c mice. In kind it is in vivo. The protocol: 6-8 week old female BALB/c mice were challenged in the mammary fat pad with 4T1 mammary carcinoma cells (1×10^5/mouse). Treatment was initiated on Day 3 post tumor challenge. Compound 1 was administered orally at 30 or 40 mg/kg on a weekly schedule of QDX2 or QDX5.

“Also recorded” adds a separate entry of the source.

With `COC[C@H](NC(=O)c1cnc(C)s1)C(=O)N[C@@H](COC)C(=O)N[C@@H](Cc1ccccc1)C(=O)[C@@]1(C)CO1` [Compound 1], the “reduction of the number of metastatic tumors in the lung” value (4T1 cells 1×10^5/mouse in mammary fat pad, oral 30 or 40 mg/kg, weekly schedule QDX2 or QDX5, treatment from Day 3 post tumor challenge) is reported as “about 50%”. The “repression of metastasis (number of metastatic tumors), result in words” value (4T1 model, both dose schedules (QDX2, QDX5) and dose levels (30, 40 mg/kg oral), FIG. 1) was “reduction in the number of metastatic breast tumors; also recorded: effective in repressing metastasis”.
